According to US20040254173A1, “Modulation of dopamine responses with substituted (S)-2,3-benzodiazepines” (priority 2003, published 2004):

Legend:
aggression in mice = conditions: Ito 1981; cited from earlier work
[1] = system: muricide (mouse killing behavior) in rats; conditions: Ito 1981; cited from earlier work
[2] = system: anti-noradrenergic effects; conditions: Ito 1981; cited from earlier work
[3] = system: apomorphine-induced hypothermia, stereotypies and climbing; assay: Low Dose Apomorphine Test in the mouse; format: in vivo; conditions: for STEREOTYPY (intensity score), 20 min after apomorphine, mean ± s.e.m. / STEREOTYPY (intensity score), 50 min after apomorphine, mean ± s.e.m.: 4 point scale (0-3); for CLIMBING (No. of mice), 20 minutes after apomorphine / CLIMBING (No. of mice), 50 minutes after apomorphine: 6 mice per group; for Rectal Temperature, 30 min after apomorphine, mean change from control / Rectal Temperature, 60 min after apomorphine, mean change from control / STEREOTYPY (intensity score), 20 min after apomorphine, mean change from control / STEREOTYPY (intensity score), 50 min after apomorphine, mean change from control: vs vehicle; for Rectal Temperature, before apomorphine, mean ± s.e.m.: 30 min after test substance
Excerpt: Racemic tofisopam, (R)-tofisopam and (S)-tofisopam were investigated in the Low Dose Apomorphine Test in the mouse to evaluate their pro- or anti-dopaminergic activity following intraperitoneal (i.p.) administration of apomorphine. Apomorphine, at a low dose, induces hypothermia, stereotypies and climbing. All three of these symptoms are potentiated by dopaminergic agonists and antagonized by dopamine antagonists, such as classical neuroleptics. The Low Dose Apomorphine Test, thus serves to detect pro- or antidopaminergic activity. The test was performed according to the protocols described by Chermat and Poncelet. See, Chermat R., Poncelet M., “Antagonisme des redressements, des stéréotypies et de l'hypotheimie induits par 1 ou 16 mg.kg-1 d'apomorphine,” J. Pharmacol., 14, 93-97, 1983.
Male mice of Rj: NMRI strain, 23-26 g body weight range were supplied by Elevage Janvier, 53940 Le Genest-Saint-Isle, France. The animals were delivered to the laboratory at least 3 days before the experiment and, upon arrival, were housed 10 per cage in macrolon cages (25×19×13 cm) containing wood shavings (Litalabo-SPPS, 95100 Argenteuil, France) with free access to food (UAR 113-UAR, 91360 Epinay-sur-Orge, France) and tap water (i.e. non-fasted) until tested. The animal house was maintained under artificial lighting (12 hours) between 7.00 and 19.00 in a controlled ambient temperature of 21±1° C., and relative humidity maintained at 40-70%.
The different treatments were equally distributed between the animals. During the experiment, each animal within a cage received the same treatment. Animals within a cage were individually marked on the tail with an indelible pen.
The experiment was conducted blind with treatment vials labeled A, B, C etc., according to a standardized coding procedure. The evaluation of the different treatments was balanced over time by testing successive series of individual animals from each treatment group in a fixed rotation (A, B, C, etc.). Animals were sacrificed at the end of the experiment by exposure to CO2.
Three compounds, racemic tofisopam, (R)-tofisopam and (S)-tofisopam were tested in the Low Dose Apomorphine Test. Each of these three compounds was dosed as a dispersion in 0.2% hydroxypropylmethylcellulose (HPMC) (Sigma), in sterile physiological saline (Laboratoire Aguettant).
Two reference standards were also dosed. Bromocriptine, methanesulfonate (Sigma), a known dopamine agonist, and haloperidol (Sigma), a known dopamine antagonist, were dispersed in 0.2% HPMC in sterile physiological saline.
Apomorphine hydrochloride, the dopamine mimetic employed in the assay, was dissolved in water for injectable preparation (Laboratoire Aguettant). Dosing: All of the dosed substances were administered in a volume of 10 ml/kg. The doses are expressed in mg/kg of supplied substance.
6 mice were studied per group. The test was performed blind.
Racemic tofisopam, (R)-tofisopam and (S)-tofisopam were administered at doses of 16, 32 and 64 mg/kg, administered intraperitonealy (i.p.), 30 minutes prior to administration of apomorphine.
The rectal temperature of the mice was measured prior to apomorphine dosing using a rectal probe (Physitemp Instruments Digital Laboratory Thermometer Model BAT-12). The mice were then placed in individual Plexiglas cages (10×6×4 cm) attached with the opening against a vertical wire grid.
The mice were then injected subcutaneously (s.c.) with apomorphine (1 mg/kg). Rectal temperature was measured 30 and 60 minutes after the injection of apomorphine.
The intensity of stereotypies (sniffing, licking, gnawing), were scored at 20 minutes and 50 minutes after injection of apomorphine on a 4 point scale (0-3). The presence (1) or absence (0) of climbing against the wire grid wall, were also assessed 20 and 50 minutes after injection of apomorphine.
The reference standards bromocriptine (16 mg/kg) and haloperidol (0.5 mg/kg), were administered under the same experimental conditions.

narcosis = conditions: mice; U.S. Pat. No. 4,322,346; cited from earlier work
[4] = 16 mg/kg i.p. 30 min before apomorphine 1 mg/kg s.c.
[5] = 16 mg/kg i.p. 30 min before apomorphine 1 mg/kg s.c., mouse
[6] = 32 mg/kg i.p. 30 min before apomorphine 1 mg/kg s.c.
[7] = 32 mg/kg i.p. 30 min before apomorphine 1 mg/kg s.c., mouse
[8] = 64 mg/kg i.p. 30 min before apomorphine 1 mg/kg s.c.
[9] = 64 mg/kg i.p. 30 min before apomorphine 1 mg/kg s.c., mouse

## CCC1C(C)=NN=C(c2ccc(O)c(OC)c2)c2cc(OC)c(O)cc21 (stereo not drawn) [1-(3-Methoxy-4-hydroxyphenyl)-4-methyl-5-ethyl-7-hydroxy-8-methoxy-5H-2,3-benzodiazepine]
Aggression in mice
  inhibition of aggression in mice: 28.6%
[1]
  inhibition of muricide: 20%
[2]
  antinoradrenergic effect: a measurable antinoradrenergic effect

## CC[C@H]1C(C)=NN=C(c2ccc(OC)c(OC)c2)c2cc(OC)c(OC)cc21 [(R)-tofisopam, (R)-1-(3,4-dimethoxyphenyl)-4-methyl-5-ethyl-7,8-dimethoxy-5H-2,3-benzodiazepine]
[3]; [4]
  STEREOTYPY (intensity score), 20 min after apomorphine, mean ± s.e.m.: 2.8 ± 0.2
  STEREOTYPY (intensity score), 50 min after apomorphine, mean ± s.e.m.: 1.0 ± 0.3
  CLIMBING (No. of mice), 20 minutes after apomorphine: 6 No. of mice
  CLIMBING (No. of mice), 50 minutes after apomorphine: 5 No. of mice
  Rectal Temperature, 30 min after apomorphine, mean change from control: 0.0 °C
  Rectal Temperature, 60 min after apomorphine, mean change from control: +0.2 °C
  STEREOTYPY (intensity score), 20 min after apomorphine, mean change from control: +0.6
  STEREOTYPY (intensity score), 50 min after apomorphine, mean change from control: 0.0
[3]; [5]
  Rectal Temperature, 30 min after apomorphine, mean ± s.e.m.: 35.1 ± 0.3 °C
  Rectal Temperature, 60 min after apomorphine, mean ± s.e.m.: 36.9 ± 0.2 °C
[3]; 16 mg/kg i.p., mouse
  Rectal Temperature, before apomorphine, mean ± s.e.m.: 37.3 ± 0.1 °C
[3]; [6]
  STEREOTYPY (intensity score), 20 min after apomorphine, mean ± s.e.m.: 2.2 ± 0.2
  STEREOTYPY (intensity score), 50 min after apomorphine, mean ± s.e.m.: 1.0 ± 0.3
  CLIMBING (No. of mice), 20 minutes after apomorphine: 6 No. of mice
  CLIMBING (No. of mice), 50 minutes after apomorphine: 4 No. of mice
  Rectal Temperature, 30 min after apomorphine, mean change from control: −0.5 °C
  Rectal Temperature, 60 min after apomorphine, mean change from control: −0.1 °C
  STEREOTYPY (intensity score), 20 min after apomorphine, mean change from control: 0.0
  STEREOTYPY (intensity score), 50 min after apomorphine, mean change from control: 0.0
[3]; [7]
  Rectal Temperature, 30 min after apomorphine, mean ± s.e.m.: 34.6 ± 0.4 °C
  Rectal Temperature, 60 min after apomorphine, mean ± s.e.m.: 36.6 ± 0.2 °C
[3]; 32 mg/kg i.p., mouse
  Rectal Temperature, before apomorphine, mean ± s.e.m.: 37.1 ± 0.1 °C
[3]; [8]
  STEREOTYPY (intensity score), 20 min after apomorphine, mean ± s.e.m.: 1.5 ± 0.6
  STEREOTYPY (intensity score), 50 min after apomorphine, mean ± s.e.m.: 1.2 ± 0.3
  CLIMBING (No. of mice), 20 minutes after apomorphine: 3 No. of mice
  CLIMBING (No. of mice), 50 minutes after apomorphine: 2 No. of mice
  Rectal Temperature, 30 min after apomorphine, mean change from control: 0.0 °C
  Rectal Temperature, 60 min after apomorphine, mean change from control: −0.2 °C
  STEREOTYPY (intensity score), 20 min after apomorphine, mean change from control: −0.7
  STEREOTYPY (intensity score), 50 min after apomorphine, mean change from control: +0.2
[3]; [9]
  Rectal Temperature, 30 min after apomorphine, mean ± s.e.m.: 35.1 ± 0.4 °C
  Rectal Temperature, 60 min after apomorphine, mean ± s.e.m.: 36.5 ± 0.4 °C
[3]; 64 mg/kg i.p., mouse
  Rectal Temperature, before apomorphine, mean ± s.e.m.: 37.2 ± 0.1 °C
[3]; 16, 32 and 64 mg/kg i.p., mouse
  effect on apomorphine-induced hypothermia: did not affect
[3]; dose-range tested (16, 32, 64 mg/kg i.p.)
  effect on apomorphine-induced hypothermia, stereotypies or climbing: did not affect

## CCC1C(C)=NN=C(c2ccc(O)c(OC)c2)c2cc(OC)c(OC)cc21 (stereo not drawn) [1-(3-Methoxy-4-hydroxyphenyl)-4-methyl-5-ethyl-7,8-dimethoxy-5H-2,3-benzodiazepine]
Aggression in mice
  inhibition of aggression in mice: 0%
[1]
  inhibition of muricide: 0%
[2]
  antinoradrenergic effect: a measurable antinoradrenergic effect
narcosis
  narcosis-potentiating activity: narcosis-potentiating activity

## CCC1C(C)=NN=C(c2ccc(OC)c(OC)c2)c2cc(OC)c(O)cc21 (stereo not drawn) [1-(3,4-Dimethoxyphenyl)-4-methyl-5-ethyl-7-hydroxy-8-methoxy-5H-2,3-benzodiazepine]
Aggression in mice
  inhibition of aggression in mice: 0%
[1]
  inhibition of muricide: 20%
[2]
  antinoradrenergic effect: no antinoradrenergic effect
